Assay results: ChEMBL document CHEMBL4138154, “Conformationally rigid derivatives of WAY-267,464: Synthesis and pharmacology at the human oxytocin and vasopressin-1a receptors” (Eur J Med Chem, 2018)

Tests used:
Oxytocin receptor [1] = biological target: T1, Oxytocin receptor (Homo sapiens, UniProt P30559); assay: Antagonist activity at human OTR expressed in HEK293 cells assessed as inhibition of agonist-induced IP1 accumulation preincubated for 30 mins followed by agonist addition measured after 1 hr by HTRF assay; assay type: functional, cell-based
T1 sequence (P30559 whole entry): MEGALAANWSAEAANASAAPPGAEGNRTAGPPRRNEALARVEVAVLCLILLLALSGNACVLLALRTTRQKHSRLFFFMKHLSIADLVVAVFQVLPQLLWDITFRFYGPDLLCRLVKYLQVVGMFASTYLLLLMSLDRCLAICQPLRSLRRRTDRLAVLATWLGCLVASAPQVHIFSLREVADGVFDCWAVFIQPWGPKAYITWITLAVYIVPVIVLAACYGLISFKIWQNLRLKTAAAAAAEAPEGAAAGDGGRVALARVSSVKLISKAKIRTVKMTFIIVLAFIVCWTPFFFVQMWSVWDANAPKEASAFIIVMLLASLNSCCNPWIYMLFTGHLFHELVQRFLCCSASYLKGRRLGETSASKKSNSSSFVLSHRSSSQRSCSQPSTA

Oxytocin receptor [2] = biological target: T1, Oxytocin receptor; assay: Agonist activity at human OTR expressed in HEK293 cells assessed as induction of IP1 accumulation after 1 hr by HTRF assay; assay type: functional, cell-based
Vasopressin V1a receptor [3] = biological target: T2, Vasopressin V1a receptor (Homo sapiens, UniProt P37288); assay: Displacement of [3H]-vasopressin from human vasopressin V1a receptor expressed in HEK293 cell membranes after 90 mins by radioligand binding assay
Vasopressin V1a receptor [4] = biological target: T2, Vasopressin V1a receptor; assay: Agonist activity at human vasopressin V1a receptor expressed in HEK293 cells assessed as induction of IP1 accumulation after 1 hr by HTRF assay; assay type: functional, cell-based
Vasopressin V1a receptor [5] = biological target: T2, Vasopressin V1a receptor; assay: Antagonist activity at human vasopressin V1a receptor expressed in HEK293 cells assessed as inhibition of vasopressin-induced IP1 accumulation preincubated for 30 mins followed by vasopressin addition measured after 1 hr by HTRF assay; assay type: functional, cell-based
Oxytocin receptor [6] = biological target: T1, Oxytocin receptor; assay: Displacement of [3H]-oxytocin from human OTR expressed in HEK293 cell membranes after 90 mins by radioligand binding assay

T2 sequence (P37288 whole entry): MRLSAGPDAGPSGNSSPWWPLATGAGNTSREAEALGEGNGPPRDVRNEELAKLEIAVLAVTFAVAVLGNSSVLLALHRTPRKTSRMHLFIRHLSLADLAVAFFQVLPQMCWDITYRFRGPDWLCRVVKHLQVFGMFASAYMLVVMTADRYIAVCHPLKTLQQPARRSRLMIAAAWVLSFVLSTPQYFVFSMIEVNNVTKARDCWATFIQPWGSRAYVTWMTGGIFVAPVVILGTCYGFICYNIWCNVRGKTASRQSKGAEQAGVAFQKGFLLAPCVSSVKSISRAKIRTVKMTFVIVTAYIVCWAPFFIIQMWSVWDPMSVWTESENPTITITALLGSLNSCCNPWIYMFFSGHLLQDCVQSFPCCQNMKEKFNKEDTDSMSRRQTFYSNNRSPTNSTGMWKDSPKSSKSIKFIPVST

Structure (SMILES) | IC50 (Oxytocin receptor [1]) [µM] | EC50 (Oxytocin receptor [2]) [µM] | Ki (Vasopressin V1a receptor [3]) [µM] | EC50 (Vasopressin V1a receptor [4]) [µM] | IC50 (Vasopressin V1a receptor [5]) [µM] | Ki (Oxytocin receptor [6]) [µM]
Cn1ncc2c1Nc1ccccc1N(C(=O)Cc1cccc(N3CCN(Cc4cc(O)cc(O)c4)CC3)c1)C2 | > 10 | > 10 | 0.643 | > 10 | > 10 | > 10
COc1cc(CN2CCN(c3ccc(CC(=O)N4Cc5cnn(C)c5Nc5ccccc54)cc3)CC2)cc(OC)c1 | > 10 | > 10 | 1.91 | > 10 | > 10 | > 10
Cn1ncc2c1Nc1ccccc1N(C(=O)CCc1cccc(N3CCN(Cc4cc(O)cc(O)c4)CC3)c1)C2 | > 10 | > 10 | 0.874 | > 10 | > 10 | > 10
Cn1ncc2c1Nc1ccccc1N(C(=O)CCc1ccc(N3CCN(Cc4cc(O)cc(O)c4)CC3)cc1)C2 | > 10 | > 10 | 1.76 | > 10 | > 10 | > 10
Cn1ncc2c1Nc1ccccc1N(C(=O)Cc1ccccc1N1CCN(Cc3cc(O)cc(O)c3)CC1)C2 | > 10 | > 10 | 1.94 | > 10 | > 10 | > 10
Cn1ncc2c1Nc1ccccc1N(C(=O)Cc1ccc(N3CCN(Cc4cc(O)cc(O)c4)CC3)cc1)C2 | > 10 | > 10 | 0.795 | > 10 | > 10 | > 10

Continued, values first:

IC50 (Oxytocin receptor [1]) [µM] | EC50 (Oxytocin receptor [2]) [µM] | Ki (Vasopressin V1a receptor [3]) [µM] | EC50 (Vasopressin V1a receptor [4]) [µM] | IC50 (Vasopressin V1a receptor [5]) [µM] | Ki (Oxytocin receptor [6]) [µM] | Structure (SMILES)
> 10 | > 10 | 6.81 | > 10 | > 10 | > 10 | COc1cc(CN2CCN(c3ccccc3CC(=O)N3Cc4cnn(C)c4Nc4ccccc43)CC2)cc(OC)c1
> 10 | > 10 | 0.251 | > 10 | > 10 | > 10 | Cn1ncc2c1Nc1ccccc1N(C(=O)CCc1ccccc1N1CCN(Cc3cc(O)cc(O)c3)CC1)C2
> 10 | > 10 | 2.1 | > 10 | > 10 | > 10 | COc1cc(CN2CCN(c3cccc(CC(=O)N4Cc5cnn(C)c5Nc5ccccc54)c3)CC2)cc(OC)c1
> 10 | > 10 | 3.34 | > 10 | > 10 | > 10 | COc1cc(CN2CCN(c3cccc(CCC(=O)N4Cc5cnn(C)c5Nc5ccccc54)c3)CC2)cc(OC)c1
> 10 | > 10 | 6.25 | > 10 | > 10 | > 10 | COc1cc(CN2CCN(c3ccc(CCC(=O)N4Cc5cnn(C)c5Nc5ccccc54)cc3)CC2)cc(OC)c1
> 10 | > 10 | 1.06 | > 10 | > 10 | > 10 | COc1cc(CN2CCN(c3ccccc3CCC(=O)N3Cc4cnn(C)c4Nc4ccccc43)CC2)cc(OC)c1
